Results on 85 compounds are retold here after ChEMBL document CHEMBL1157539, “Thousands of chemical starting points for antimalarial lead identification” (Nature, 2010).

The structures appear in SMILES notation.

The test system of the assay is Plasmodium falciparum. The assay is described as follows: GSK_TCMDC: Inhibition of Plasmodium falciparum 3D7 in whole erythrocytes, using parasite LDH activity as an index of growth. The format is functional, organism-based. Conditions: Plasmodium falciparum, 3D7.
The compound `Cc1ccc(Nc2nc(N/N=C/c3cc4c(cc3Br)OCO4)nc(Nc3ccc([N+](=O)[O-])cc3)n2)cc1C` showed an XC50 of 750 nM. Under `CCN(CC)CCN(Cc1ccc(-c2ccc(C(F)(F)F)cc2)cc1)C(=O)Cn1c(SCc2ccc(F)cc2)nc(=O)c2ccccc21` stands 773 nM; under `COc1ccc2nc3cc(Cl)ccc3c(NCCCCCCNc3c4ccc(Cl)cc4nc4ccc(OC)cc34)c2c1`, 661 nM; under `Cc1[nH]c(C)c(C(F)(F)F)c(=O)c1-c1ccc(Oc2ccc(OC(F)(F)F)cc2)cc1`, 173 nM. With `O=C(Cc1ccccc1)NC(CCN1CCC(NC(=O)c2ccc(Cl)cc2)CC1)c1ccc(Cl)c(Cl)c1` (stereo not given) the figure was 916 nM. `CC1(C)NC(N)=NC(=N)N1OCCCCCOc1ccccc1` returned an XC50 of 3.2 nM. With `COc1ccc2nccc([C@@H](O)CN3CCC(NC(=O)C(c4ccsc4)N4CCN(c5ccccc5OC)CC4)CC3)c2c1` (stereo not given in full) the figure was 832 nM; with `COc1ccc(C2CNCc3c2cc(OC)c(OC)c3Cl)cc1` (stereo not given), 731 nM. With `O=C(Nc1ccc(Cl)cc1)c1cccc(CN2CCCN(Cc3cccc(O)c3)CC2)c1` the figure was 957 nM. With `NC1CCN(CCNCc2cccc(-c3ccc(-c4nc5cc(C(F)(F)F)ccc5[nH]4)cc3)c2)C1` (stereo not given) the figure was 893 nM. `COC(=O)c1ccc(-c2ccc(-c3cccnc3)cc2C)cc1` gave an XC50 of 662 nM. Under `N#CCCN1CCN(Cc2ccc(-c3cccc(-c4nc5cc(F)ccc5[nH]4)c3)cc2)CC1` stands 972 nM; under `N#Cc1ccc(N2CCN(Cc3cccc(-c4ccc(-c5nc6cc(C(F)(F)F)ccc6[nH]5)s4)c3)CC2)nc1`, 1040 nM; under `O=C(Cn1c(CCc2cccc(F)c2F)cc(=O)c2cccnc21)N(CCn1ccnc1)Cc1ccc(-c2ccc(C(F)(F)F)cc2)cc1`, 672 nM. Under `Clc1cccc(Cl)c1CCNCC1CCN(CC2CCCCC2)CC1` stands 212 nM; under `CC(=O)c1ccc2nc[nH]c(=O)c2c1`, 722 nM; under `COc1ccc2[nH]c(C)cc(=NN=Cc3ccccc3Cl)c2c1`, 601 nM. Under `Cc1ccc(-c2nc(N3CCN(C(=O)c4ccco4)CC3)c3ccc(Cl)cc3n2)cc1` stands 1210 nM.

`COc1ccc2nccc([C@@H](O)CN3CCC(NCc4cc5ccccc5cn4)CC3)c2n1` returned an XC50 of 918 nM. Under `CCC(C)NCC(O)(c1ccc(Cl)cc1)c1ccc(Cl)cc1` (stereo not given) stands 843 nM; under `Cc1cc(N[C@@H](Cc2ccccc2)C(=O)NC2CCCC2)nc(NCc2ccccc2C)n1`, 1230 nM; under `CCOC(=O)c1nc(-c2ccccc2)[nH]c1NC(=S)NC1CCCCC1`, 836 nM. With `c1ccc(CN2CCC(NCc3ccc(-c4ccc(CNC5CCCC5)cc4)cc3)CC2)cc1` the figure was 294 nM. Under `CO/C(=C\C=C\c1cc2cc(Cl)c(Cl)cc2[nH]1)C(=O)NCCCN1CCN(c2cccc(OC)c2)CC1` stands 845 nM. Compound `CC(C)CCN1CCC(Oc2ccc(NC(=O)c3ccccc3)cc2Cl)CC1` displayed an XC50 of 1300 nM. Under `CCN(CC)CCNC(=O)c1ccc(NC(=O)c2oc3c(Cl)cccc3c2C)cc1` stands 703 nM. With `COc1ccc(Nc2nccc(-c3ccc(NC(=O)c4cc5cc(F)ccc5[nH]4)cc3)n2)cc1` the figure was 630 nM. Under `CCCCCCCCCN(CCC)C(=O)[C@@H]1OC(C(=O)OC(c2ccccc2)c2ccccc2)=C[C@H](NC(=O)OC(C)(C)C)[C@H]1NC(C)=O` stands 640 nM; under `NC1CCN(c2nc(NCCCc3ccc(O)cc3)nc(NCc3cccc4ccccc34)n2)CC1`, 724 nM. The compound `Cn1cnc2c(SCc3ccc(OCc4ccccc4)cc3)ncnc21` displayed an XC50 of 557 nM. With `CCCCN1CCCC[C@H]1[C@@H](O)c1ccnc2ccc(OCC)cc12` the figure was 773 nM. Under `COc1ccc2nccc(CCC3(O)CCC(NCc4cc5c(cc4F)SCC(=O)N5)CC3)c2c1` (stereo not given) stands 675 nM; under `CC(C)(C)c1ccc(NC(=O)c2cccc(CN3CCCN(CC4CCCCC4)CC3)c2)cc1`, 737 nM.

Take `CC1CCCCN1CCCNc1nc(NCc2ccccc2)c2ccccc2n1` (stereo not given): the XC50 amounted to 953 nM. Under `COc1cc(F)c2nccc([C@@H](O)CN3CCC(NCc4nc5cccc(F)c5[nH]4)CC3)c2c1` stands 847 nM.

In turn, `Cc1cc(N[C@@H](Cc2ccccc2)C(=O)Nc2ccccc2)nc(NCCc2cccnc2)n1` showed an XC50 of 1340 nM. `O=C(NCCCN1CCOCC1)c1ccc(-c2cccc(NC(=O)c3ccc(Cl)c(Cl)c3)c2)cc1`: the XC50 stood at 683 nM. `CC(C)(C)c1ccc(CN2CCCCC(NC(=O)c3cc(-c4cccc(Cl)c4)cs3)C2)cc1` (stereo not given) yielded an XC50 of 999 nM. With `Nc1ccc(-c2nc3c(ccc4ccccc43)[nH]2)cc1` the figure was 941 nM; with `Cc1cc(N2CCC(NS(=O)(=O)c3ccccc3)CC2)nc(Nc2cccc(C#N)c2)n1`, 1350 nM; with `CCCCCOc1ccc(C(O)C(CN2CCCCC2)c2ccccc2)cc1` (stereo not given), 877 nM.

The compound `CCC1(C)CC(CCNCc2ccccc2O)(c2ccc(C)cc2)CCO1` (stereo not given) had an XC50 of 38.8 nM.

In turn, `CCCCCCCn1c2c(c(=N)c3c1CCC3)CCCC2` gave an XC50 of 102 nM. With `CN(C)CCOc1ccc(NC(=O)NC(C)(C)c2nc(-c3ccc(Cl)c(O)c3)c(-c3ccncc3)[nH]2)cc1` the figure was 113 nM; with `COc1cc(-c2nnc(SCC(=O)Nc3cc(C)on3)n2C)cc(OC)c1O`, 177 nM; with `CS(=O)(=O)c1cccc(-c2ccc3oc(C(N)=O)c(NC(=O)c4cccs4)c3c2)c1`, 589 nM. Under `C=C[C@]1(C)C[C@@H](OC(=O)NC(=O)CCCS(=O)(=O)c2nnc(C)s2)[C@]2(C)[C@H](C)CC[C@]3(CCC(=O)[C@H]32)[C@@H](C)[C@@H]1O` stands 31.5 nM; under `O=C(Nc1ccc(-c2nc3ccccc3[nH]2)cc1)c1cncc(Br)c1`, 814 nM; under `Cc1cc(C(=O)NC2CCN(Cc3ccccc3)CC2)ccc1-c1nc2ccc(C(F)(F)F)cc2[nH]1`, 891 nM. Under `O=C(C=Cc1ccccc1)Nc1ccc(C#CC=Cc2ccc(NC(=O)C=Cc3ccccc3)cc2)cc1` stands 847 nM; under `CC(C)(CNCc1ccc(F)c(F)c1)c1nc(-c2ccc(Cl)c(O)c2)c(-c2ccncc2)[nH]1`, 660 nM; under `Cc1cc(O)c(CN(C)Cc2ccc3c(c2)OCO3)cc1C(C)C`, 738 nM.

The compound `Cc1cc(OCc2ccncc2)cc2c1C(=O)CC(C)(C)O2` registered an XC50 of 183 nM. Under `O=C(NCc1cccc(Br)c1)c1ccc(CNC2CCN(Cc3ccccc3)CC2)cc1` stands 875 nM. Under `CNCCCNCc1ccc(-c2ccc(F)c(Cl)c2)o1` stands 752 nM; under `COc1cc(Cc2cnc3nc(N)nc(N)c3c2C)cc(OC)c1OC`, 64.2 nM; under `O=C(/C=C/c1ccccc1Cl)Nc1ccc(Br)c(OCCN2CCC(O)(c3ccccc3)CC2)c1`, 483 nM.

Compound `N#Cc1ccc2c(c1)CCN(CCC1CCC(NC(=O)/C=C/c3cc(Br)cs3)CC1)CC2` (stereo not given) yielded an XC50 of 997 nM. As for `O=C(/C=C/c1ccc(Cl)c(Cl)c1)NCCCCCN1CCC(NC(=O)Nc2cc(Cl)ccc2Cl)CC1`, the XC50 is 433 nM. With `COc1ccc(C2CC(=O)C3=C(C2)NC(C)=C(C(=O)OC2CCCC2)C3c2cccc(O)c2)cc1OC` (stereo not given) the figure was 216 nM; with `CC(=O)Oc1ccc(C(=O)Oc2ccccc2C#CC#N)cc1OC(C)=O`, 320 nM. Under `C[C@@H](Oc1cc(-n2cnc3ccc(OCC4CCN(S(C)(=O)=O)CC4)cc32)sc1C(N)=O)c1ccccc1C(F)(F)F` stands 1020 nM. Compound `COc1ccc(OC)c(NC(=O)C2c3ccccc3C(=O)N(CC(C)C)C2c2cccs2)c1` (stereo not given) yielded an XC50 of 805 nM. With `CN(C)c1cccc(NC(=O)N[C@H]2N=C(c3ccccc3)c3ccccc3N(CC(=O)N3CCCC3)C2=O)c1` the figure was 254 nM; with `CS(=O)(=O)CCNCc1cccc(-c2cc3c(Nc4ccc(OCc5cccc(F)c5)c(Cl)c4)ncnc3s2)c1`, 198 nM; with `CN(C)S(=O)(=O)n1ncc2c3c(N)nc(N)nc3ccc21`, 178 nM. On to `O=C(NC1CCCCCC1)C1CCCN(C(=O)c2ccc(O)c(-c3ccc(Cl)c(Cl)c3)c2)C1` (stereo not given), for which the XC50 is 763 nM. For `O=C(Nc1cccc(-c2ccc(-c3nc4ccccc4[nH]3)s2)c1)c1ccncc1`, the XC50 came out at 778 nM. Under `CCOc1cc(C)ccc1N(C1CCN(CCCCNC(=O)c2ccc(-c3ccc(C(F)(F)F)cc3)cc2)CC1)S(=O)(=O)c1ccccc1` stands 1020 nM; under `NC1CCN(c2nc(NCCCc3ccc(O)cc3)nc(NCc3ccccc3-c3ccccc3)n2)CC1`, 678 nM; under `O=C(Nc1ccncc1)c1cn(-c2ccccc2)nc1-c1cccs1`, 977 nM. In the case of `COc1ccc2nc3cc(Cl)ccc3c(Nc3ccc(Sc4ccc(Nc5c6ccc(Cl)cc6nc6ccc(OC)cc56)cc4)cc3)c2c1`, the XC50 came to 199 nM. Under `CN(C)c1ccc(NC2=NC(N)=NC(C)(C)N2)cc1` stands 223 nM. As for `Cc1cc(Nc2cccc(C#N)c2)nc(Nc2ccccc2C)n1`, the XC50 is 861 nM.

Consider `Cc1c(C(=O)N2CCCC(C(F)(F)F)C2)sc2cccc(F)c12` (stereo not given), for which the XC50 is 599 nM. With `CCOCCCNc1sc(S(=O)(=O)c2ccccc2)nc1S(=O)(=O)c1ccc(C)cc1` the figure was 809 nM; with `O=[N+]([O-])c1cccc(-c2nc(-c3ccc(Br)cc3)[nH]c2-c2ccc(Br)cc2)c1`, 759 nM. Under `O=C(NC1CCC(CN2CCC(c3c[nH]c4ccccc34)CC2)CC1)[C@H]1Cc2ccccc2CN1` (stereo not given in full) stands 948 nM; under `CC[C@H]1CN2CC[C@H]1C[C@@H]2[C@H](O)c1ccnc2ccc(O)cc12`, 1040 nM; under `Fc1cc(Cl)ccc1Nc1ccnc2cc(I)ccc12`, 1130 nM. Under `O=C(Nc1ccc(-c2nc3cc4ccccc4cc3[nH]2)cc1)c1cccc(Br)c1` stands 363 nM; under `CCNc1cc(C(=O)N[C@@H](Cc2ccccc2)[C@H](O)CNC2CCC(C)(C)CC2)cc(N2CCCCS2(=O)=O)c1`, 647 nM. `CCc1nc2nc(C)cc(Nc3ccc(F)c(Cl)c3)n2n1` registered an XC50 of 974 nM. Turning to `O=C(/C=C/c1ccc(Cl)c(Cl)c1)NCCCCCN1CCC(CCNC(=O)/C=C/c2ccccc2F)CC1`, the XC50 was 871 nM. With `Cc1nc(-c2ccc(-c3ccc(C(=O)Nc4ccc(I)c(OCCN5CCCC5)c4)cc3)c(C)c2)no1` the figure was 964 nM.
